Test results published in patent US11873298B2, “Compounds and uses thereof” (JANSSEN PHARMACEUTICA NV, priority 2017, dated 2024).

Key:
[1] = target: T1, SCD5 (Homo sapiens, UniProt Q86SK9); test: Growth inhibition of humanized yeast strain expressing SCD5 as sole desaturase; assay type: cell-based
T1 construct: host or cells: S. cerevisiae ole1Δ strain (W303 pdr1Δ pdr3Δ background), plasmid pRS316 with TDH3 promoter and CYC1 terminator
T1 sequence (Q86SK9 1-330): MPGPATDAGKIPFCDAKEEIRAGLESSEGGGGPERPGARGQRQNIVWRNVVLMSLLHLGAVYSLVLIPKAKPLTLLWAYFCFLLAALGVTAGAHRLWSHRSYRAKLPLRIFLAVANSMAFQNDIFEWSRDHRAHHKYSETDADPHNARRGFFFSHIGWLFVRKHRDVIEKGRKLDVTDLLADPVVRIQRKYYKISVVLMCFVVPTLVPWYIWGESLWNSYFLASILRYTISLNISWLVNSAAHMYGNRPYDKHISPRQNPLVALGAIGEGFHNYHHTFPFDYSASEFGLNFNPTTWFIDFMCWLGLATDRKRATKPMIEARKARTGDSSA
Summary of the method: (§1)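 OD600 growth read-out. ole1Δ yeast, pdr1Δ pdr3Δ, with Ole1/SCD1/SCD5 on a plasmid; SX-Ura media throughout; 2× cell density 0.02 in CSM-Galactose; DMSO compound dilutions; humidified 30° C.; Ole1 stopped at 24 h, SCD1/SCD5 at 40 h.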

[2] = target: T2, SCD1 (Homo sapiens, UniProt O00767); test: Growth inhibition of humanized yeast strain expressing SCD1 as sole desaturase; assay type: cell-based
T2 construct: host or cells: S. cerevisiae ole1Δ strain (W303 pdr1Δ pdr3Δ background), plasmid pRS316 with TDH3 promoter and CYC1 terminator
T2 sequence (O00767 1-359): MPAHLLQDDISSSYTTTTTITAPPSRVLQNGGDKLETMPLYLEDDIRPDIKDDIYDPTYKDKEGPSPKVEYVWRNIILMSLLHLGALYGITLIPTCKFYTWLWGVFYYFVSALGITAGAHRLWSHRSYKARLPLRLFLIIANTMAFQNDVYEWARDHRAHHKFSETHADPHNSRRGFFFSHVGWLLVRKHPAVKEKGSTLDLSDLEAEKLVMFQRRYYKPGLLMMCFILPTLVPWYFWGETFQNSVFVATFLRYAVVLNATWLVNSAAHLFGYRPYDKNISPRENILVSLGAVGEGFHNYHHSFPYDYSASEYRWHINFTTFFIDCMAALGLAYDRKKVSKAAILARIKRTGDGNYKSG
Summary of the method: as §1

[3] = humanized yeast strain expressing SCD5
[4] = humanized yeast strain expressing SCD1
[5] = growth inhibition of humanized yeast strain expressing human SCD5
[6] = growth inhibition of humanized yeast strain expressing human SCD1

Row | Structure (SMILES) | IC50 ([1]; humanized yeast strain, 40 h) [µM] | IC50 ([2]; humanized yeast strain, 40 h) [µM] | further results
1 | CC(C)n1ncc2ccc(-c3noc(N4CCN(C(=O)OC5(C)CC5)CC4)n3)cc21 [Compound 496] |  |  | IC50 [1, 3]: 0.445 µM; IC50 [2, 4]: > 45 µM
2 | CC(C)c1ncn2ccc(-c3noc(C4CCN(C(=O)OC(C)(C)C)CC4)n3)cc12 [Compound 866] | 4.61 | > 45 | 
3 | COC(=O)N1CC[C@@H](c2noc(-c3ccc4cnn(C5COC5)c4c3)n2)C[C@@H]1C [Compound 1054] | 0.01 | > 45 | 
4 | CC(C)n1ncc2ccc(-c3noc(C4CCN(C(=O)N5CCC5(C)C)CC4)n3)cc21 [Compound 684] |  |  | IC50 [1, 5]: > 45 µM; IC50 [2, 6]: > 45 µM
5 | CC(C)(C)OC(=O)N1CCN(c2nc(-c3ccc4cnn(C5CNC5)c4c3)no2)CC1 [Compound 910] | 0.01 | > 45 | 
6 | COC(=O)N1CCC(c2noc(-c3ccc4cnn(C5CS(=O)(=O)C5)c4c3)n2)CC1 [Compound 1000] | 0.65 | > 45 | 
7 | CC(C)(C)OC(=O)N1CCC(c2nc(-c3ccc4cnn(C5CC(=O)C5)c4c3)no2)CC1 [Compound 787] | 0.108 | 31.5 | 
8 | O=C(c1ccccc1)N1CCC(c2noc(-c3ccc4cnn(C5COC5)c4c3)n2)CC1 [Compound 685] |  |  | IC50 [1, 5]: 0.184 µM; IC50 [2, 6]: > 45 µM
9 | COC(=O)N1CCC(c2nnc(-c3ccc4cnn(C5COC5)c4c3)o2)CC1 [Compound 871] | 9.54 | > 45 | 
10 | CC(C)n1nc(CCS(C)(=O)=O)c2ccc(-c3noc(C4CCN(C(=O)OC(C)(C)C)CC4)n3)cc21 [Compound 766] | > 45 | > 45 | 
11 | CC(C)(C)OC(=O)N1CCN(c2nc(-c3ccc4cnn(C5CCOC5)c4c3)no2)CC1 (stereo not drawn) [Compound 784] | 0.01 | 0.95 | 
12 | Cn1cc(-c2cc(-c3nc(C4CCN(C(=O)OC5(C)CC5)CC4)no3)ccn2)cn1 [Compound 1186] | 6.08 | 10 | 
13 | CC1(CC(=O)N2CCN(c3noc(-c4ccc5cnn(C6COC6)c5c4)n3)CC2)CC1 [Compound 842] | 0.01 | > 45 | 
14 | CC(C)(C)OC(=O)N1CCC(c2nc(-c3ccc4cnc(C#N)n4c3)no2)CC1 [Compound 942] | 9.16 | > 45 | 
15 | CC(C)(C)OC(=O)N1CC(c2nc(-c3ccc4cnn(C5COC5)c4c3)no2)C1 [Compound 700] |  |  | IC50 [1, 5]: 0.703 µM; IC50 [2, 6]: > 45 µM
16 | COC(=O)N1CC[C@H](c2noc(-c3ccc4cnn(C5COC5)c4c3)n2)C[C@H]1C [Compound 1059] | 0.00223 | > 45 | 
17 | Cc1nn(C)c2cc(-c3noc(C4CCN(C(=O)CNC(=O)c5cccc(Cl)c5)CC4(F)F)n3)ccc12 (stereo not drawn) [Compound 603] |  |  | IC50 [1, 3]: 2.41 µM; IC50 [2, 4]: 7.26 µM
18 | CC(C)n1ncc2ccc(-c3cc(C4CCN(C(=O)OC(C)(C)C)CC4)on3)nc21 [Compound 835] | > 45 | > 45 | 
19 | CC(C)(C)OC(=O)N1CCC(N2CCN(c3ccc4cnn(C5COC5)c4c3)C2=O)CC1 [Compound 810] | 2.5 | > 45 | 
20 | CC(C)C(=O)N1CCN(c2noc(-c3ccnc(NC4COC4)c3)n2)CC1 [Compound 1133] | > 45 | > 45 | 
21 | CCOC(=O)CC(C)n1ncc2ccc(-c3noc(C4CCN(C(=O)OC(C)(C)C)CC4)n3)cc21 (stereo not drawn) [Compound 651] |  |  | IC50 [1, 5]: 18.4 µM; IC50 [2, 6]: > 45 µM
22 | CC(C)n1ncc2ccc(-c3noc(C4CCN(C(=O)c5ccc(Cl)cc5)CC4)n3)cc21 [Compound 363] |  |  | IC50 [1, 3]: > 45 µM; SCD5 % Max Inhibition [1, 3]: 1.99%; SCD1 % Max Inhibition [2, 4]: 64.44%
23 | Cc1nn(C)c2cc(-c3noc(C4CN(C(=O)OC(C)(C)C)C4)n3)ccc12 [Compound 365] |  |  | IC50 [1, 3]: > 45 µM; SCD5 % Max Inhibition [1, 3]: 23.74%; SCD1 % Max Inhibition [2, 4]: 58.08%
24 | CC(C)n1ncc2ccc(-c3nc(N4CCN(C(=O)OC5(C)CC5)CC4)no3)cc21 [Compound 682] |  |  | IC50 [1, 5]: 0.01 µM; IC50 [2, 6]: > 45 µM

Row | Structure (SMILES) | IC50 ([1]; humanized yeast strain, 40 h) [µM] | IC50 ([2]; humanized yeast strain, 40 h) [µM] | further results
25 | COC(=O)N1CCCN(c2noc(-c3cc(F)c4cnn(C5COC5)c4c3)n2)CC1 [Compound 963] | 0.16 | > 45 | 
26 | C=C(F)/C=C/n1cc2ccc(-c3noc(C4CCN(C(=O)OC(C)(C)C)CC4)n3)cc2n1 [Compound 739] |  |  | IC50 [1, 5]: > 45 µM; IC50 [2, 6]: > 45 µM
27 | CCC(=O)N1CCC(c2noc(-c3cccc(N4CCOCC4)c3F)n2)CC1 [Compound 1159] | > 45 | > 45 | 
28 | COC(=O)N1CCN(c2nc(-c3ccc4cnn(C5CCOC5)c4c3)no2)CC1 (stereo not drawn) [Compound 803] | 0.679 | 12.9 | 
29 | O=C(c1ccccc1F)N1CCN(c2noc(-c3ccc4cnn(C5CNC5)c4c3)n2)CC1 [Compound 957] | 0.01 | 27.9 | 
30 | CC(C)(C)OC(=O)N1C[C@@H]2[C@H](C1)[C@H]2NC(=O)OCc1ccccc1 [Compound 774] | > 45 | > 45 | 
31 | COC(=O)N1CCC(c2noc(-c3ccc4cnn(C5COC5)c4c3F)n2)CC1 [Compound 1004] | 0.297 | > 45 | 
32 | CC(C)(C)OC(=O)N1CCN(c2nc(-c3ccc4cn(C5CCC5)nc4c3)no2)CC1 [Compound 729] |  |  | IC50 [1, 5]: > 45 µM; IC50 [2, 6]: > 45 µM
33 | O=C(N1CCC(c2noc(-c3ccc4cnn(C5COC5)c4c3)n2)CC1)C1(O)CC1 [Compound 903] | 0.01 | > 45 | 
34 | CC(C)n1ncc2ccc(-c3noc(N4CCC(O)(CCCl)CC4)n3)cc21 [Compound 763] | 18 | 29.5 | 
35 | CO[C@H]1C[C@H](n2ncc3ccc(-c4noc(C5CCN(C(=O)OC(C)(C)C)CC5)n4)cc32)C1 [Compound 859] | > 4 | > 45 | 
36 | COC(=O)N1CCN(c2noc(-c3ccc4cnn(C5CN(C)C5)c4c3)n2)CC1 [Compound 960] | 0.01 | 20.4 | 
37 | CCC(=O)N1CCC(c2noc(-c3ccc(F)c(N4CCOCC4)c3)n2)CC1 [Compound 1164] | 0.54 | > 45 | 
38 | CC(C)n1ncc2ccc(-c3noc(C4CCN(C(=O)OC(C)(C)C)C=C4F)n3)cc21 (stereo not drawn) [Compound 660] |  |  | IC50 [1, 5]: 14.6 µM; IC50 [2, 6]: > 45 µM
39 | CC(C)(C)OC(=O)N1CCC(/C(N)=N/OC(=O)c2ccc3cnn(C4COC4)c3c2)CC1 [Compound 1134] | 0.0269 | > 45 | 
40 | O=C(C1CC1)N1CCC(c2noc(-c3ccc4oc(=O)n(C5COC5)c4c3)n2)CC1 [Compound 1135] | 0.188 | > 45 | 
41 | O=C(OC1CC1)N1CCC(c2noc(-c3cnc4cnn(C5COC5)c4c3)n2)CC1 [Compound 1139] | 0.096 | > 45 | 
42 | COC(=O)N1CCC(c2nc(-c3ccc4cnn(C5CS(=O)(=O)C5)c4c3)no2)CC1 [Compound 1014] | 4.82 | > 45 | 
43 | CC(C)n1ncc2ccc(-c3noc([C@H]4CC[C@H](O)CC4)n3)cc21 [Compound 634] |  |  | IC50 [1, 5]: ≥ 45 µM; IC50 [2, 6]: > 45 µM
44 | CC(C)(C)OC(=O)N1CCC(c2nc(-c3ccc4cnn(C5CCOC5)c4c3)no2)CC1 (stereo not drawn) [Compound 650] |  |  | IC50 [1, 5]: 0.013 µM; IC50 [2, 6]: 4.36 µM
45 | COCC(C)(C)n1ncc2ccc(-c3noc(C4CCN(C(=O)CC(C)(C)C)CC4)n3)cc21 [Compound 802] | 14.2 | > 45 | 
46 | CC(C)(C)OC(=O)N1CCC(c2nc(-c3ccc4cnn(C5CS(=O)(=O)C5)c4c3)no2)CC1 [Compound 690] |  |  | IC50 [1, 5]: 0.131 µM; IC50 [2, 6]: > 45 µM
47 | O=C(C1CCC1)N1CCC(c2noc(-c3ccnc(N4CCOCC4)c3)n2)CC1 [Compound 1105] | 0.549 | > 45 | 
